Measured values: patent publication US7704969B2, “Transfection complexes” (ICH Productions Limited, priority 2001, dated 2010)
Entries after “also recorded” stand apart in the source; their conditions may differ. Bridge positions count the residues as written; N and C are the ends. Ends that are not written are not given here.

Legend:
HAE cells [1] = experiment: Whole cell ELISA of phage binding to HAE cells; set-up: species or system human; details: phage sequences of Table 1a compared and ranked using a range of phage titres
Experimental: Following incubation of the phage with the HAE cells, the cells are washed and retained phage may then be detected by immunostaining. Cell specificity is assessed by comparing phage binding to target cells with phage binding to the wells on which the cells were plated and with phage binding to NIH 3T3 fibroblast control cells.
Binding of phage to tissue cultured HAE cells was investigated by whole cell ELISA. Approx. 8×10^4 HAE cells in […] Hanks Balanced Salts Solution (HBSS) were added to each well of a 96 well plate and incubated at 37° C. until cells had adhered. The cells were washed gently in HBSS before blocking by the addition of 0.5% BSA in HBSS for 30 mins. […] Bound phage were detected by the addition of horseradish peroxidase (HRP)-conjugated anti-M13 antibody diluted 1:5000 in blocking buffer for 1 hour, before washing three times in PBS and developing the ELISA with 2,2′-azino-bis(3-ethylbenzthiazoline 6-sulfonic acid) (ABTS) substrate solution and reading the absorbance on a plate-reading spectrophotometer at 405 nm. […]
Approx. […] Bound phage were detected by the addition of HRP-conjugated anti-M13 antibody diluted 1:5000 in blocking buffer for 1 hour, before washing three times in PBS, developing the ELISA with ABTS solution, and reading the absorbance at 405 nm.

HAE cells [2] = experiment: Luciferase reporter gene transfection of HAE cells with lipid/peptide/DNA vector complexes; format: cell-based, human
Text: Transfection complexes were made by mixing the components in the order 1) lipid, then 2) peptide and, finally 3) DNA, followed by dilution. The vector complex suspension was applied to HAE cells and control cells. Vector complexes incorporating peptide Q ([K]16-GACLQHKSMPCG [SEQ. ID. NO.:12]) and vector complexes incorporating peptide P ([K]16-GACLPHKSMPCG [SEQ. ID. NO.:13]) were synthesised and compared with vector complexes incorporating peptide S ([K]16-GACYKHPGFLCG] [SEQ. ID. NO.:14]) which is a control peptide having the same amino acid constituents as peptide P but in a randomised order (the “scrambled control”), Peptide 12 ([K]16—XSXGACRRETAWACG [SEQ. ID. NO.:15]), a targeting peptide known to bind to alpha 5 beta 1 integrins and Peptide K ([K]16) a DNA binding moiety with no targeting ligand attached.
Transfections of HAE cells and 3T3 cells were performed in 96 well plates containing 20,000 cells plated 24 hours earlier. In the transfection vector complex, peptide to DNA charge ratios (+/−) were used at 1.5:1, 3:1 and 7:1. At physiological pH, DNA carries negative charge and the polycationic-nucleic acid binding component carries positive charge. The “charge ratio” is accordingly the ratio of the charges of the two components in the complex. The lipid component was maintained at a constant proportion, by weight, relative to DNA of 0.75:1.
Control peptide (S), consisted of the same amino acid constituents as the targeting peptide P but in a randomised order, was synthesised for incorporation into lipopolyplex formulations. Transfections of HAE and 3T3 cells were performed in 96 well plated containing 20,000 cells plated 24 h earlier. In the transfection complex, peptide to DNA charge ratios (+/−) were used at 1.5:1, 3:1 and 7:1. The lipid component was maintained at a constant proportion, by weight, relative to DNA of 0.75:1. Prior to making transfection complexes the lipid component was diluted to a concentration of 15 μg per ml, the peptide was prepared at 0.1 mg/ml and the DNA was at 20 μg per ml. All dilutions were performed with OptiMEM reduced serum tissue culture medium (Life Technologies). Transfection complexes were made by mixing of components in the order 1) lipid then 2) peptide and finally 3) DNA, then diluted with OptiMEM to a concentration relative to the DNA component of 0.25 μg DNA per 200 μl which volume was added to each well. Each group was performed in replicates of six. The vector complex suspension was then applied to cells within 5 minutes of preparation. Transfection incubations were performed at 37° C. for 4 h. Luciferase reporter gene assays in cell free extracts were performed after 48 h incubation using a kit from Promega according to the manufacturer's protocol. […]

3T3 cells = experiment: Luciferase reporter gene transfection of 3T3 cells; format: cell-based, mouse; details: FIG. 8, best peptide:DNA charge ratio, expression after 24 hours

LPHKSMP (not fully specified (N-terminus, C-terminus)) [basis of peptide P]
binding affinity to HAE cells (binding strength by ELISA) (HAE cells [1]): highest binding affinity

[K]16-GACYKHPGFLCG (KKKKKKKKKKKKKKKKGACYKHPGFLCG; N-terminal K16 oligolysine; Targeting peptide, see description) [peptide S, reference compound]
transfection performance of peptide S relative to peptide K16 (HAE cells [2]; in transfection complexes): less than a tenth as good

[K]16-GACLQHKSMPCG [peptide Q]
transfection efficiency relative to peptide 6 (3T3 cells): approximately 1.5 times

[K]16-GACSERSMNFCG (KKKKKKKKKKKKKKKKGACSERSMNFCG; disulfide 19-27 (inferred))
transfection efficiency relative to peptide 6 (3T3 cells): approximately 1.5 times

[K]16-GACLPHKSMPCG (KKKKKKKKKKKKKKKKGACLPHKSMPCG; disulfide 19-27 (inferred)) [peptide P]
transfection efficiency relative to peptide 12 (next best peptide) (HAE cells [2]; peptide P at 7:1 charge ratio vs peptide 12 at 3:1 charge ratio, luciferase): five-fold higher | transfection performance relative to peptide Q (HAE cells [2]; transfection assay, FIG. 3): significantly better | transfection efficiency relative to peptide K (K16, no targeting ligand) (HAE cells [2]; vector complexes, luciferase): almost nine-fold higher; also recorded: almost nine-fold more efficient
